Measured values published in ChEMBL document CHEMBL1201862, “PubChem BioAssay data set” (2004).
Activity calls are given as the source filed them.

What was measured:
[1] = microbe, parasite or virus in culture; format: functional; conditions: Mycobacterium tuberculosis
[2] = viability of PTEN-deleted HCT116 cells – cell-based, HCT116 PTEN knockout, dose response (AID 1047); format: functional;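 note: HCT116 colon tumor cells with PTEN knocked out; cells exposed to compound for 60 hours before readout; potency for loss of cell viability measured by luminescence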
[3] = viability of HCT116 lacking mutant beta-catenin – cell-based, human colon tumor, dose response (AID 1045); format: functional;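 note: HCT116 colon tumor cells with beta catenin knocked out; cells exposed to compound for 60 hours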
[4] = HEK-293T cell viability reduction – luminescence, B-cell screen hits, cytotoxicity control for BCR NF-kB inhibitor project, dose response (AID 489021); format: functional, cell-based;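 note: HEK-293T cells carrying an NF-kB luciferase reporter; cells exposed to compound for about 14 hours before viability readout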
[5] = biological target: Melanocortin receptor 4 (Homo sapiens, UniProt P32245); experiment: inhibitors of MC4R cAMP signaling – cell-based, TR-FRET, biased antagonists, dose response (AID 602298); format: functional;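 note: antagonist potency against agonist-stimulated cAMP production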
Melanocortin receptor 4, sequence (P32245 whole entry): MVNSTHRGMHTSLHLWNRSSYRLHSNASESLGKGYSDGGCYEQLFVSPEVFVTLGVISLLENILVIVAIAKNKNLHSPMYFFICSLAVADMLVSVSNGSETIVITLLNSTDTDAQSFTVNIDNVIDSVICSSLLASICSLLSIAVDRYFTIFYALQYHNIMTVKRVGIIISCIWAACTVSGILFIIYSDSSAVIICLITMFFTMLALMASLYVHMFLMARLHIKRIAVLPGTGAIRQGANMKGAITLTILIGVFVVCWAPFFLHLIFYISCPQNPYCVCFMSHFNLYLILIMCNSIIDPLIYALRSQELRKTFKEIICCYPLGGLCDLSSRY

[6] = reduction of Shn3 3'UTR-driven luciferase in osteoblasts – cell-based, Clone20 osteoblasts, firefly luciferase, cherry-picked, dose response (AID 624132); format: functional;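 note: firefly luciferase luminescence from reporter carrying the Shn3 3'UTR in osteoblasts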
[7] = loss of viability in HepG2 cells – cell-based, CellTiter-Glo, cherry-picked, cytotoxicity control for Shn3 inhibitor project, dose response (AID 624134); format: functional
[8] = non-specific 3'UTR reporter inhibition in Clone20-Shn3RL – cell-based, Renilla luciferase, cherry-picked, counter-screen for Shn3 inhibitor project, dose response (AID 624133); format: functional
[9] = cAMP pathway inhibition in counterscreen cell line – TR-FRET cAMP detection, counter-screen for MC4R biased antagonist project, dose response (AID 602305); format: functional, cell-based;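 note: U2OS cells stimulated with forskolin near its EC80 as the cAMP inducer; potency is for inhibition of forskolin-stimulated cAMP signaling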
[10] = A549 cell cytotoxicity, dose response, cytotoxicity control, plate reader, cherry-pick, antagonist series (AID 743412); format: functional, cell-based
[11] = toxicity toward HepG2 liver cells – cell-based, plate reader, cherry-pick, antagonist series, cytotoxicity control, dose response (AID 743416); format: functional
[12] = blockers of bursicon-stimulated LGR2 cAMP reporter – cell-based, HEK293, CRE-luciferase reporter, cherry pick, set 2, dose response (AID 743343); format: functional;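 note: transfected cells were stimulated with diluted bursicon conditioned medium after compound addition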
[13] = blockade of melanocortin 4 receptor signaling – cell-based, plate reader, cherry pick, counter-screen for LGR2 antagonist project, dose response (AID 743444); format: functional;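 note: transfected HEK 293 cells stimulated with alpha-MSH peptide; potency of inhibitors of the alpha-MSH evoked signal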
[14] = viability loss in HEK293 cells – cell-based, plate reader, cherry-picked samples, cytotoxicity control, dose response (AID 743446); format: functional
[15] = biological target: T1, High affinity choline transporter 1 (Homo sapiens, UniProt Q9GZV3); experiment: human choline transporter blockers, potency – cell-based, 5-point CRC, membrane potential dye, dose response (AID 504840); format: functional
T1 sequence (Q9GZV3 whole entry): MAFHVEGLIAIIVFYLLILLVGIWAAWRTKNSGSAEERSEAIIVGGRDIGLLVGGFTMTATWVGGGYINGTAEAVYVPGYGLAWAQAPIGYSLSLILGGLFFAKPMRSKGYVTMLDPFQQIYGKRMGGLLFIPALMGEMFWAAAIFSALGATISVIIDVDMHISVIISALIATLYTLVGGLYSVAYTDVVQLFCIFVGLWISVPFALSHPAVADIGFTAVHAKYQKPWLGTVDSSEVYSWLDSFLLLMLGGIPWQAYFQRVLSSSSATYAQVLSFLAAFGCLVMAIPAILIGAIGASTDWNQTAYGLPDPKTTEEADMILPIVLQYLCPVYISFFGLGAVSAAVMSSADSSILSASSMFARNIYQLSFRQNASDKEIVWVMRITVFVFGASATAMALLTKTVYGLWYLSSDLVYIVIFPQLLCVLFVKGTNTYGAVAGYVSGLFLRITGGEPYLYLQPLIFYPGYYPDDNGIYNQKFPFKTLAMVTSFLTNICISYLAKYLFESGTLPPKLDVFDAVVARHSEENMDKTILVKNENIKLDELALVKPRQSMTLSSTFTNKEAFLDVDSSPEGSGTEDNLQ

[16] = biological target: T1, High affinity choline transporter 1; experiment: human choline transporter blockers, potency – cell-based, 10-point CRC, membrane potential dye, dose response (AID 588401); format: functional;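 note: membrane potential dye fluorescence of choline-evoked depolarization via CHT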
[17] = SAR analysis of small molecule activators of Apaf-1 using a LZ-Caspase-9/Caspase-3 Fluorescent Selectivity assay - Set 2.; format: functional; conditions: read-out: EC50_Mean
[18] = biological target: T2, Apoptotic protease-activating factor 1 (Homo sapiens, UniProt O14727); experiment: SAR analysis of small molecule Activators of Apaf-1 in a Fluorescent assay - set 2.; format: functional; conditions: read-out: EC50_Mean
T2 sequence (O14727 whole entry): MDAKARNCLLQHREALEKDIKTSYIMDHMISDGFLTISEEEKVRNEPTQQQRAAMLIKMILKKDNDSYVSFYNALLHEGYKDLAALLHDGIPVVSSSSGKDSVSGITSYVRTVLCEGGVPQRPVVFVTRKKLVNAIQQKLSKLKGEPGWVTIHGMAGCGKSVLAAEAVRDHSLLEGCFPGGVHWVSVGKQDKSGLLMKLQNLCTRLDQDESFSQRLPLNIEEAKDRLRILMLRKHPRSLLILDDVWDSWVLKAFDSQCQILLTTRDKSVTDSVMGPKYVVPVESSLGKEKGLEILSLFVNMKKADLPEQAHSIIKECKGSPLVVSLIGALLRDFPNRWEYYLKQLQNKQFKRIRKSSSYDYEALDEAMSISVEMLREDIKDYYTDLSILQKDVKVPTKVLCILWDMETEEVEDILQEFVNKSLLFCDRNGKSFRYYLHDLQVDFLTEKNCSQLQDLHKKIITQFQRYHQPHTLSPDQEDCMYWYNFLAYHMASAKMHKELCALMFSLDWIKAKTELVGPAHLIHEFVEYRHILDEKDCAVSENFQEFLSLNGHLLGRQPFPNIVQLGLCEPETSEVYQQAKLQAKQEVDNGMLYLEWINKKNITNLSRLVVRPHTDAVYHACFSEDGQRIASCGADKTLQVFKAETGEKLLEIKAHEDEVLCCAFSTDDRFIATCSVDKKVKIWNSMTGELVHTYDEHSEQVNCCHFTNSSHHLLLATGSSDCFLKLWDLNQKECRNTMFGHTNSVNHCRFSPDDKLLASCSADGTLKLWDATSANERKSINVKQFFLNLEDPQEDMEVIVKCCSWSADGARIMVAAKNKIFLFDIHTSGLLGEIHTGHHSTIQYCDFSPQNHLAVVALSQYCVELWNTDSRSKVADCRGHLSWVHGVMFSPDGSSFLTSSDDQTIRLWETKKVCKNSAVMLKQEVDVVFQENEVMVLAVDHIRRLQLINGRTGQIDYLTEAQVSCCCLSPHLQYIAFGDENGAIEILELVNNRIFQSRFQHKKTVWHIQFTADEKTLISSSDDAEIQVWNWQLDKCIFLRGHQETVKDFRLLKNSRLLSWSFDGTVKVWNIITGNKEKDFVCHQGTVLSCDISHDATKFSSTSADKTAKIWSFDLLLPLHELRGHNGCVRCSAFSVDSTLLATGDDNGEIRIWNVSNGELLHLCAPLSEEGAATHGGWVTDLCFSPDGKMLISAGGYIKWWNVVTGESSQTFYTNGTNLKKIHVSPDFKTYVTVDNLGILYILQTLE

[19] = biological target: Multidrug resistance protein CDR2 (Candida albicans (strain SC5314 / ATCC MYA-2876) (Yeast), UniProt P78595); experiment: inhibition of Nile Red efflux via Candida CDR2 – S. cerevisiae AD1-8u, singleplex, Cherry Pick1 hits, dose response (AID 588604); format: functional
Multidrug resistance protein CDR2, sequence (P78595 whole entry): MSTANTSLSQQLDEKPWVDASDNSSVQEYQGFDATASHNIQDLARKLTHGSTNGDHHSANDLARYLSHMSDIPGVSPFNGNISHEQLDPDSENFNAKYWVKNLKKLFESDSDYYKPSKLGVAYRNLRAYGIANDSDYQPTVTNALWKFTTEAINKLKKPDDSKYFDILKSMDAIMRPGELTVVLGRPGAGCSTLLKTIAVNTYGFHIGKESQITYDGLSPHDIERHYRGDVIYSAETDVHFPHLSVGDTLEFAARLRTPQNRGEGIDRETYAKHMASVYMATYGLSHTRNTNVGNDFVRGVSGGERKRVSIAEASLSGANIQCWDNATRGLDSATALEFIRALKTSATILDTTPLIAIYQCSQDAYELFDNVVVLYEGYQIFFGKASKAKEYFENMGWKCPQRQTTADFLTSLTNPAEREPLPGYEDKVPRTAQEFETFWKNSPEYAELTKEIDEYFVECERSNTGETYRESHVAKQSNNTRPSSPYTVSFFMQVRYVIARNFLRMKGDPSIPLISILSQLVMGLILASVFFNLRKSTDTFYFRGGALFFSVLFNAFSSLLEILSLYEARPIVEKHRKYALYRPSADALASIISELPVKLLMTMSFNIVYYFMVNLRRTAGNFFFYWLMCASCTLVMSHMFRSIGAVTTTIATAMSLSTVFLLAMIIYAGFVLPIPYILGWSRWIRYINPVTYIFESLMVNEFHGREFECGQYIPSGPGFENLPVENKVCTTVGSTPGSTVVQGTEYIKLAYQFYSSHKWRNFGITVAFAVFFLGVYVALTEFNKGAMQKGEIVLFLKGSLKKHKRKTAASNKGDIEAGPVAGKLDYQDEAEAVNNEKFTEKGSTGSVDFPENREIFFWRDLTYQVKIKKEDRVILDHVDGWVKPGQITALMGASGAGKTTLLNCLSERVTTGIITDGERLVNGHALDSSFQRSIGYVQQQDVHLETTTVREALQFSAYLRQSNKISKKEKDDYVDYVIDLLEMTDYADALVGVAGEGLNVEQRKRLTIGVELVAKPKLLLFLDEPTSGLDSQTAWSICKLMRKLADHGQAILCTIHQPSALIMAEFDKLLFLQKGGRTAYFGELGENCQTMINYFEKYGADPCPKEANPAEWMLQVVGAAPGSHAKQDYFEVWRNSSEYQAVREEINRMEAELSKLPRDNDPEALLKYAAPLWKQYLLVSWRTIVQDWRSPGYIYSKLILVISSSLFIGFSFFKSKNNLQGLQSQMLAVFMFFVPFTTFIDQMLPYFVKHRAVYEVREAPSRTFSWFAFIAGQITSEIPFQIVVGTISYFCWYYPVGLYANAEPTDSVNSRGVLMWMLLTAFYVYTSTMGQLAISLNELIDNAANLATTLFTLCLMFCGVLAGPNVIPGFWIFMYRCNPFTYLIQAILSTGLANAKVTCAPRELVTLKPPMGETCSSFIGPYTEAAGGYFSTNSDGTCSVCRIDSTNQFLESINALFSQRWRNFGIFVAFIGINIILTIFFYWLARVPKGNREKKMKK

[20] = biological target: T3, DNA dC->dU-editing enzyme APOBEC-3A (Homo sapiens, UniProt P31941); experiment: Dose Response confirmation of small molecule APOBEC3A DNA Deaminase Inhibitors via a fluorescence-based single-stranded DNA deaminase assay. [Related pubchem assays (depositor defined):AID493011, AID493024]; format: functional
T3 sequence (P31941 whole entry): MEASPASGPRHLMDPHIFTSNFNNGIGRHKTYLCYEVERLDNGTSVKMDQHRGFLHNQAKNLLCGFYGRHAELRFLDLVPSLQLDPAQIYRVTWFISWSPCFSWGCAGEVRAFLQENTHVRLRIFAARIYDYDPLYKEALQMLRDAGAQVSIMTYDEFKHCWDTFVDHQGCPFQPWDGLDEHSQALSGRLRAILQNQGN

[21] = biological target: T4, DNA dC->dU-editing enzyme APOBEC-3G (Homo sapiens, UniProt Q9HC16); format: functional
T4 sequence (Q9HC16 whole entry): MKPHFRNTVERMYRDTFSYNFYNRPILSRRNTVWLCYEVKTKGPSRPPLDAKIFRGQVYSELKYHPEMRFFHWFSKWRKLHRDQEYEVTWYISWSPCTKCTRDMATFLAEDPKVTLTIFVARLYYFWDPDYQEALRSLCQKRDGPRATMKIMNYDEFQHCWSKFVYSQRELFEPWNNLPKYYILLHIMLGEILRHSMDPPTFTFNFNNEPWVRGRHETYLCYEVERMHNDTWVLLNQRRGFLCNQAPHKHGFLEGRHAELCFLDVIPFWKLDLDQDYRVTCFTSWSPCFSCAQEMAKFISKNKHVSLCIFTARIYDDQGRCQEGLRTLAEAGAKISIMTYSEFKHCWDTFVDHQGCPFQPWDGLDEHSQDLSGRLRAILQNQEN

[22] = biological target: T3, DNA dC->dU-editing enzyme APOBEC-3A; experiment: SAR analysis of small molecule inhibitors of APOBEC3A DNA Deaminase via a fluorescence-based single-stranded DNA deaminase assay - Set 2.; format: functional; conditions: read-out: IC50_Mean
[23] = biological target: T4, DNA dC->dU-editing enzyme APOBEC-3G; experiment: SAR analysis of small molecule inhibitors of APOBEC3G DNA Deaminase via a fluorescence-based single-stranded DNA deaminase assay - Set 2.; format: functional; conditions: read-out: IC50_Mean
[24] = biological target: T4, DNA dC->dU-editing enzyme APOBEC-3G; experiment: inhibition of APOBEC3G ssDNA deamination – biochemical, fluorescence, single-stranded DNA substrate, SAR follow-up (AID 602136); format: functional; conditions: read-out: IC50_Mean
[25] = biological target: T3, DNA dC->dU-editing enzyme APOBEC-3A; experiment: SAR analysis of small molecule inhibitors of APOBEC3A DNA Deaminase via a fluorescence-based single-stranded DNA deaminase assay.; format: functional; conditions: read-out: IC50_Mean
[26] = biological target: Mitogen-activated protein kinase 8 (Homo sapiens, UniProt P45983); format: functional;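 note: value comes from one member of a kinome-wide kinase profiling panel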
Mitogen-activated protein kinase 8, sequence (P45983 whole entry): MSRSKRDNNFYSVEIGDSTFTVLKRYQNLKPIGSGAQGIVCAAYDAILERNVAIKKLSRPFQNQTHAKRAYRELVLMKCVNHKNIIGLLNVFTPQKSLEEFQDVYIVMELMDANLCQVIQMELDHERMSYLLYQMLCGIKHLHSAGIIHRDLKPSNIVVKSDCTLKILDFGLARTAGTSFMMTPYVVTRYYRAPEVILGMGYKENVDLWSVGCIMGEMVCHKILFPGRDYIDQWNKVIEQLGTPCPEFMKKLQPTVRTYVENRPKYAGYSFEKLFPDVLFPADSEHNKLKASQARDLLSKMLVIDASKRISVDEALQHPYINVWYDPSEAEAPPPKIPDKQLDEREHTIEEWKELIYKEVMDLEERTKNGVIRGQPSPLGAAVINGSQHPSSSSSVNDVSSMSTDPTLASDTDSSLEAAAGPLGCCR

[27] = biological target: Dual specificity tyrosine-phosphorylation-regulated kinase 1B (Homo sapiens, UniProt Q9Y463); experiment: Navigating the Kinome. Panel member name: DYRK1B; format: functional
Dual specificity tyrosine-phosphorylation-regulated kinase 1B, sequence (Q9Y463 whole entry): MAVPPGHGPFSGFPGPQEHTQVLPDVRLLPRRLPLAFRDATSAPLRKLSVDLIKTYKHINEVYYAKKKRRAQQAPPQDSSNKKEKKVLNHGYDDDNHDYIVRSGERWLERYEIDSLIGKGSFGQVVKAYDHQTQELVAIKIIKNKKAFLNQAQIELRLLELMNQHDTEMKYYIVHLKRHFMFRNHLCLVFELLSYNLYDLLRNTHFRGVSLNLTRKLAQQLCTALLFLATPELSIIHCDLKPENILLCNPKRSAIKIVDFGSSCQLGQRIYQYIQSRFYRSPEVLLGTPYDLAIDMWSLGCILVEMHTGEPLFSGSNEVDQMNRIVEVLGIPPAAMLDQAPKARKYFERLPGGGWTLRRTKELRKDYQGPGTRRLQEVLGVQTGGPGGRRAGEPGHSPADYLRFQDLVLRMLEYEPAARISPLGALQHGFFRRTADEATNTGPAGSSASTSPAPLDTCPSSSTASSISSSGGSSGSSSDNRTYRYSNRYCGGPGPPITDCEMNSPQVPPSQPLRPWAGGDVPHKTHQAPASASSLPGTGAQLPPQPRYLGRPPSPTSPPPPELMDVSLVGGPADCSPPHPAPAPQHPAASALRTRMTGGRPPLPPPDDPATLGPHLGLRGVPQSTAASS

[28] = biological target: Dual specificity protein kinase CLK4 (Homo sapiens, UniProt Q9HAZ1); format: functional
Dual specificity protein kinase CLK4, sequence (Q9HAZ1 whole entry): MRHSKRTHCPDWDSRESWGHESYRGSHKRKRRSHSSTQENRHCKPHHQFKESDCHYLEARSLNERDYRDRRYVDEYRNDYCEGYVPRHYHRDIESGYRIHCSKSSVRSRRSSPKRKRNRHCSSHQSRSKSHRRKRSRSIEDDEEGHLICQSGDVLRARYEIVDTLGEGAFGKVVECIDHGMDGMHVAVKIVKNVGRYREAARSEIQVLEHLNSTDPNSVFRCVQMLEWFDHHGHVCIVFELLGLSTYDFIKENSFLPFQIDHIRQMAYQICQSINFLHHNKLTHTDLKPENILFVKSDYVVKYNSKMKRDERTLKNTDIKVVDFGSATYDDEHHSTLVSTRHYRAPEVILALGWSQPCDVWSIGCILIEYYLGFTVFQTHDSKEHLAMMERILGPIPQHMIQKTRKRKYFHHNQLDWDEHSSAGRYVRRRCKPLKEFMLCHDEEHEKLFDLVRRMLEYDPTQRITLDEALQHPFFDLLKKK

[29] = biological target: Dual specificity tyrosine-phosphorylation-regulated kinase 1A (Homo sapiens, UniProt Q13627); format: functional;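 note: measured against DYRK1A as one member of a broad kinome profiling panel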
[30] = biological target: T5, Neuropeptides B/W receptor type 1 (Homo sapiens, UniProt P48145); experiment: human NPBW1 receptor blockade, IC50 – cell-based, fluorescence, dose response, set 5, late-stage follow-up (AID 588566); format: functional
T5 sequence (P48145 whole entry): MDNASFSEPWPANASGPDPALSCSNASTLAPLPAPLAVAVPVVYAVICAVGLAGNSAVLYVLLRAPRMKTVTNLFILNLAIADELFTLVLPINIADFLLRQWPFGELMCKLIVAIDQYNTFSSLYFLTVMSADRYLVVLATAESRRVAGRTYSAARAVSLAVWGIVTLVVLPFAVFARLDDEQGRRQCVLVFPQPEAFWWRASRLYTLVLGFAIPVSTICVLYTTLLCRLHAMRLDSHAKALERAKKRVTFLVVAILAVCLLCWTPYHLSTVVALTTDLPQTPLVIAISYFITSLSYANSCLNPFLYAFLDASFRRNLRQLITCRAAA

[31] = biological target: Melanin-concentrating hormone receptor 1 (Homo sapiens, UniProt Q99705); experiment: Late-stage fluorescence-based counterscreen for antagonists of the G-protein coupled receptor 7 (GPR7): cell-based dose response assay to identify antagonists of the melanin-concentrating hormone receptor 1 (MCHR1) Set 5.; format: functional
Melanin-concentrating hormone receptor 1, sequence (Q99705 whole entry): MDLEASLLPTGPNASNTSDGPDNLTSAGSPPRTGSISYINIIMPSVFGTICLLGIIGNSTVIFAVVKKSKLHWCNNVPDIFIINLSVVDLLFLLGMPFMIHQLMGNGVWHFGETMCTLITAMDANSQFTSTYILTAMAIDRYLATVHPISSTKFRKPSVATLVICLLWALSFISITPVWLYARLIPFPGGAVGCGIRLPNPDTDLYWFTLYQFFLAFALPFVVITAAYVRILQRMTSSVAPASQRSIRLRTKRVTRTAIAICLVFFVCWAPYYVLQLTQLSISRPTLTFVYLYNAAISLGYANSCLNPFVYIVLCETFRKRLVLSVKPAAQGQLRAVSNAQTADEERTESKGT

Compound: COc1ccc(-n2nnnc2S(=O)(=O)CC(=O)N2CCCCC2)cc1
- CC50 [1]: 11.3 µM (active)
- EC50 [2]: 10.6 µM (active)
- EC50 [3]: 10.9 µM (active)
- IC50 [4]: > 80 µM (inactive)
- IC50 [5]: > 64.5 µM (inactive)
- AC50 [6]: 5.44 µM (active)
- AC50 [7]: 16.8 µM (active)
- AC50 [8]: 3.45 µM (active)
- IC50 [9]: > 64.5 µM (inactive)
- AC50 [10]: 13 µM (active)
- AC50 [11]: 8.89 µM (active)
- AC50 [12]: 7.53 µM (active)
- AC50 [13]: 7.63 µM (active)
- AC50 [14]: 13.6 µM (active)

Compound: CCOC(=O)c1cc(C(=O)NC(C)c2ccccc2)c(C)nc1O (stereo unspecified)
- IC50 [15]: 1.77 µM (active)
- IC50 [16]: 0.447 µM (active)

Compound: CC(Cn1cnc2ccccc21)C(=O)O (stereo unspecified)
- EC50 [17]: > 100 µM (inactive)
- EC50 [18]: 83.2 µM (active)

Compound: COc1cccc(-c2sc3ccc(OC)cc3c2-c2ccc(OCCN3CCCCC3)cc2)c1
- EC50 [19]: 11.2 µM (active)

Compound: C[n+]1cccc(C(=O)Nc2ccccc2)c1
- IC50 [20]: 2.75 µM (active)
- IC50 [21]: 6.95 µM (active)
- IC50 [22]: 28.6 µM (inactive)
- IC50 [23]: 1.1 µM (active)
- IC50 [24]: 5.96 µM (active)
- IC50 [25]: 12.8 µM (inactive)

Compound: O=c1[nH]ccc2cnc(-c3ccccc3)n12
- Ki [26]: 25.1 µM (active)
- Ki [27]: 79.4 µM (active)
- Ki [28]: 39.8 µM (active)
- Ki [29]: 63.1 µM (active)

Compound: Cc1cccc(C(C#N)c2c(Cl)cnn(Cc3cccc4ccccc34)c2=O)c1 (stereo unspecified)
- IC50 [30]: 0.379 µM (active)
- IC50 [31]: 18.8 µM (inactive)
